What was measured:
Dusp6 = target: T1, Dusp6 (Homo sapiens, UniProt Q16828); assay: Basal Dusp6 dephosphorylation of OMFP; assay type: biochemical; set-up: His; made in house
T1 sequence (Q16828 1-381): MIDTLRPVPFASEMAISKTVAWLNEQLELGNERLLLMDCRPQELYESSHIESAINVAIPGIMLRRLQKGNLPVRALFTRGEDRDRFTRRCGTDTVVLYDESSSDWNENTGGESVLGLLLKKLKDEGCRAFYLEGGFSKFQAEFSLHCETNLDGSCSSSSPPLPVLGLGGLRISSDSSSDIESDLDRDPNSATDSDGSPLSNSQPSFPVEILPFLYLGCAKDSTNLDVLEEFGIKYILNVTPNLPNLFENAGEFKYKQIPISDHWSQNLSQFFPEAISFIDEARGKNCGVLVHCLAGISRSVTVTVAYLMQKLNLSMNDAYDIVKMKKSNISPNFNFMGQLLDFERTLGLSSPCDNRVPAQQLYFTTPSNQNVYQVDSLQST
Procedure: For OMFP based ERK2 induced activation of Dusp6, recombinant His-tagged Dusp6 was expressed from a bacterial expression vector and 250 ng were incubated with the indicated concentrations of NSC95397 or BCI. OMFP was added at its apparent Km (100 μM) (Vogt, A. et al. J Biol Chem 280, 19078-86 (2005)). The final reaction volume was 15 μl. After 1 h at RT, OMF fluorescence was measured on an M5 multimode reader (Molecular Devices) at excitation/emission wavelengths of 485/525 nm. To assay activated Dusp6, 210 ng or 2.1 μg of recombinant ERK2 (Cell signaling) were added to Dusp6(210 ng)/BCI(100 μM) mixtures to measure activation at 1:1 and 1:10 ratio of substrate to enzyme. OMFP was immediately added and fluorescence (ex485/em525 nm) was read every 10 min for 130 min. Fold activation was calculated at 60 mins in each experiment.

[1] = tested on: FGF signaling (d2EGFP reporter); assay: BCI analog SAR: d2EGFP intensity in transgenic zebrafish embryos by densitometry; assay type: in vivo; details: 20 μM, 24 hpf embryos, 6 h; for Activity (BCI = 100): d2EGFP intensity in the dorsal region
Procedure: Transgenic zebrafish embryos (24 hpf) were treated with 20 μM solution of BCI analogs in 0.5% aq DMSO and fluorescence photomicrographs were taken after 6 h. The effectiveness of BCI analogs was evaluated by densitometry (ImageJ) of d2EGFP intensity in the dorsal region.

[2] = tested on: FGF signaling (Tg(Dusp6:d2EGFP)pt6 reporter); assay: Transgenic zebrafish chemical screen, d2EGFP fluorescence; assay type: in vivo; details: 24 hpf embryos, 6-8 hours; analogs even at four-fold higher concentrations
Procedure: Tg(dusp6:d2EGFP)pt6 embryos were obtained by natural crossings and incubated at 28.5° C. until they reached 24 hpf. Five transgenic embryos were placed into each well from a 96-well plate in 200 μl of E3, and a 0.5% DMSO solution was added along with compound from each library at 10 μM. The NCI diversity set (NCl/NIH), the Natural Products library (MicroSource Discovery Systems Inc.) and Phosphatase targeted set (Chembridge) were screened in this study. (E)-2-Benzylidene-3-(cyclohexylamino)-2,3-dihydro-1H-inden-1-one (BCI; also known as NSC150117) was identified as a compound that enhanced fluorescence in treated transgenic embryos. Treated embryos were photographed under the same settings for exposure, gain and magnification for each picture using a MZFLIII (Leica) microscrope and fluorescent illumination for GFP using endow cube (Chroma Technology Corp., Rockingham, Vt.). Qimaging software and the Retiga Exi camera (Qimaging, Burnaby, BC Canada) were used to capture the images.
We previously described the generation of a transgenic zebrafish line, (Tg(Dusp6:d2EGFP)pt6) that expresses destabilized green fluorescent protein (d2EGFP) under the control of FGF signaling (Molina, G. A., et al. BMC Dev Biol 7, 62 (2007)). Using Tg(Dusp6:d2EGFP) embryos as a biosensor for FGF signaling, we screened over 5000 diverse compounds assembled from chemical libraries for small molecule modulators of this pathway. Five transgenic embryos at 24 hours post fertilization (hpf) were arrayed into each well of a 96-well plate containing test compounds at 10 μM. d2EGFP intensity in treated embryos was visually analyzed and compared to vehicle control (0.5% DMSO) after 6-8 hours. […] To confirm that BCI hyperactivated FGF signaling, we treated embryos prior to gastrulation (5 hpf), and we analyzed by whole mount in situ hybridization, the expression of ntl (zebrafish brachyury), a known FGF target gene (Latinkic, B. V. et al. Genes Dev 11, 3265-76 (1997)). […] We next determined the BCI structural features required to enhance FGF signaling. Two analogs, (E)-2-benzylidene-2,3-dihydro-1H-inden-1-one (BI) lacking the cyclohexylamino group, and 3-(cyclohexylamino)-2,3-dihydro-1H-inden-1-one (ICD) lacking the benzylidene group were synthesized).

Dusp3/VHR = Dusp3/VHR (Homo sapiens, UniProt P51452); assay: OMFP phosphatase assay, Dusp3/VHR; assay type: biochemical; details: 100 μM, positive control
Chain of Dusp3/VHR (P51452 whole entry): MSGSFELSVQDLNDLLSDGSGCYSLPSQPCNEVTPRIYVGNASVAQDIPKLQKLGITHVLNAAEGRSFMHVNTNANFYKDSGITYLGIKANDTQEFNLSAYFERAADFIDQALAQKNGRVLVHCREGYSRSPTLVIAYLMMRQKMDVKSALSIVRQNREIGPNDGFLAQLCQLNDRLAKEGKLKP
Procedure: (§1) Enzyme activities in the presence or absence of BCI were measured using the artificial substrate […] at concentrations equal to the Km of each enzyme (Cdc25B, PTP1B & Dusp3/VHR) and at optimal pH for individual enzyme activity in a 96-well microtiter plate assay based on previously described methods by Lazo et al. (J Med Chem 44, 4042-9 (2001) and Lazo, J. S. et al. Bioorg Med Chem 14, 5643-50 (2006)). Briefly, the standard assay conditions contained 0.02 mg/ml OMFP in assay buffer (30 mM Tris-HCl (pH8.0), 75 mM NaCl, 1 mM EDTA, 0.33% BSA and 1 mM DTT). Fluorescence emission was measured after a sixty-minute incubation period at ambient temperature using a multiwell plate reader (SpectraMax m5, […]; excitation 485 nm, emission 525 nm). Sodium orthovanadate (100 μM) was used as a positive control for full phosphatase inhibition. IC50 concentrations were determined from three experiments using 10 concentrations of BCI ranging from 300 μM to 15.2 nM and GraphPad Prism 5.0 software.

Cdc25B = target: T2, Cdc25B (Homo sapiens, UniProt P30305); assay: OMFP phosphatase assay, Cdc25B; assay type: biochemical; details: 100 μM, positive control
T2 sequence (P30305 1-580): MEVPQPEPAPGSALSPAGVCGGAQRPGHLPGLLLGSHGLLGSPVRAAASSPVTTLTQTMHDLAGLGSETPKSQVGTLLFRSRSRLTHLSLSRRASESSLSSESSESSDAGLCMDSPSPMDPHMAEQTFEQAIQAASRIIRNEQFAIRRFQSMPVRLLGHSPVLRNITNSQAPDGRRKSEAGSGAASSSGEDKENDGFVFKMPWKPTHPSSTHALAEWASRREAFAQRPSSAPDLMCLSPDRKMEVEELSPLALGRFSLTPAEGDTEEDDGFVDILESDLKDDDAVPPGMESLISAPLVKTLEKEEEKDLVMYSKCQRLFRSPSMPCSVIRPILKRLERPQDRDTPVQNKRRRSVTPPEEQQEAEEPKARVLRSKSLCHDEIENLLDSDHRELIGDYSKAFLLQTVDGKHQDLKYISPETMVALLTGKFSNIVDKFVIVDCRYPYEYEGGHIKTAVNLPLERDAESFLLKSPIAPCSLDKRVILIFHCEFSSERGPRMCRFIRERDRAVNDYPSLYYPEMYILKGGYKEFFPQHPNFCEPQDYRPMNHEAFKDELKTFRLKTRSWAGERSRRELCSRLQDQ
Procedure: as §1

PTP1B = target: T3, PTP1B (Homo sapiens, UniProt P18031); assay: OMFP phosphatase assay, PTP1B; assay type: biochemical; details: 100 μM, positive control
T3 sequence (P18031 1-435): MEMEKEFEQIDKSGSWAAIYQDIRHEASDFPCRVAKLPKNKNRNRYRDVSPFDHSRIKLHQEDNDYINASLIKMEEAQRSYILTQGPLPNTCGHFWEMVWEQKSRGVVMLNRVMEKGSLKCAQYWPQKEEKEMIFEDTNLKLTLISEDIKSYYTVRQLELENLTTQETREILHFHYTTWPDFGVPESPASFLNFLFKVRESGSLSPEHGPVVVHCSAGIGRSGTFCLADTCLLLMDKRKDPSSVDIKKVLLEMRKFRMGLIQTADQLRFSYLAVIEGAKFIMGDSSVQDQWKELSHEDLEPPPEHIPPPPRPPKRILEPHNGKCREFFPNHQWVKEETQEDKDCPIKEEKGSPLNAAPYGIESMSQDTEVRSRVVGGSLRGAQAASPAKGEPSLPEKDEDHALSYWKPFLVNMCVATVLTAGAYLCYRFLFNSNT
Procedure: as §1

## O=C1C(SCCO)=C(SCCO)C(=O)c2ccccc21 [NSC95397, 2,3-bis(2-hydroxyethylthio)naphthalene-1,4-dione, reference compound]
Dusp6
  effect on basal Dusp6 activity toward OMFP: blocked basal Dusp6 activity toward OMFP

## O=C1/C(=C/c2ccccc2)C(NC2CCCCC2)c2ccccc21 (single isomer, unassigned; (-)) [(−)-BCI]
[1]
  activity of the levorotatory enantiomer relative to the dextrorotatory form: twice
  Activity (BCI = 100): 156

## O=C1/C(=C/c2ccccc2)C(NC2CCCC2)c2ccccc21 (stereo not shown) [Compound 4]
[1]
  Activity (BCI = 100): 123

## O=C1/C(=C/c2ccccc2)Cc2ccccc21 [Compound 1, (E)-2-benzylidene-2,3-dihydro-1H-inden-1-one]
[1]
  in vivo activity relative to BCI, in words: inactive
  Activity (BCI = 100): 0
[2]
  d2EGFP fluorescence in treated transgenic embryos: inactive

## O=C1/C(=C/c2ccccc2)C(N2CCCCC2)c2ccccc21 (stereo not shown) [Compound 7]
[1]
  Activity (BCI = 100): 114

## O=C1/C(=C/c2ccc(Cl)cc2)C(NC2CCCCC2)c2ccccc21 (stereo not shown) [Compound 14]
[1]
  activity as compared to BCI: 52%
  Activity (BCI = 100): 52

## O=C1/C(=C/c2ccccc2)C(N2CCOCC2)c2ccccc21 (stereo not shown) [Compound 9]
[1]
  Activity (BCI = 100): 114

## CC(=O)N1CCN(C2/C(=C\c3ccccc3)C(=O)c3ccccc32)CC1 (stereo not shown) [Compound 13]
[1]
  Activity (BCI = 100): 47

## O=C1/C(=C/c2ccccc2)C(NC2CCCCCC2)c2ccccc21 (stereo not shown) [Compound 5, 2-Benzylidene-3-cycloheptylaminoindan-1-one]
[1]
  Activity (BCI = 100): 127

## O=C1/C(=C/c2ccccc2)C(N2CCNCC2)c2ccccc21 (stereo not shown) [Compound 11]
[1]
  Activity (BCI = 100): 22

## O[C@H]1/C(=C/c2ccccc2)[C@H](NC2CCCCC2)c2ccccc21 (stereo in doubt) [Compound 18, 2-Benzylidene-3-cyclohexylaminoindan-1-ol]
[1]
  Activity (BCI = 100): 26

## N#Cc1ccc(/C=C2/C(=O)c3ccccc3C2NC2CCCCC2)cc1 (stereo not shown) [Compound 15]
[1]
  activity as compared to BCI: 20%
  Activity (BCI = 100): 20

## CN1CCN(C2/C(=C\c3ccccc3)C(=O)c3ccccc32)CC1 (stereo not shown) [Compound 12]
[1]
  Activity (BCI = 100): 0

## O=C1N[C@H]2[C@H](CS[C@H]2CCCCC(=O)N[C@H]2CC[C@H](NC3/C(=C\c4ccccc4)C(=O)c4ccccc43)CC2)N1 (stereo partly shown) [Compound 19]
[1]
  in vivo activity relative to BCI, in words: no effect on FGF signaling
  Activity (BCI = 100): No activity,

## O=C1/C(=C/c2ccccc2)C(N2CCSCC2)c2ccccc21 (stereo not shown) [Compound 10]
[1]
  Activity (BCI = 100): 27

## [Na+].[Na+].[Na+].[O]=[V]([O-])([O-])[O-] [Sodium orthovanadate, reference compound]
Dusp3/VHR
  inhibition of Dusp3/VHR: 100%
Cdc25B
  inhibition of Cdc25B: 100%
PTP1B
  inhibition of PTP1B: 100%

## O=C1/C(=C/c2ccccc2)C(Nc2ccccc2)c2ccccc21 (stereo not shown) [Compound 6]
[1]
  Activity (BCI = 100): 7
